Key:
Aβtotal [1] = test: γ-secretase-modulating activity, Method 2: Aβtotal Alphalisa in supernatant of SKNBE2 cells carrying APP 695-wild type (Table 3b); assay type: cell-based; settings: overnight, read-out: IC50 Aβtot
How it was run: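 SKNBE2 cells expressing wild-type APP 695 were incubated overnight at 37 °C, 5% CO2 with test compound at a range of concentrations. Aβtotal in supernatant was measured by AlphaLISA sandwich (N-terminal JRF/AβN/25 acceptor, biotinylated mid-region 4G8 donor); IC50 from 4-parameter fit of percent control versus log concentration.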

Aβ42 [2] = test: In vivo efficacy, Method 2: brain soluble Aβ42 lowering 4 h after a single oral dose, ELISA (Table 4b); set-up: species or system mouse; settings: dose 30 mg/kg oral dosing
Excerpt: (§1) To determine whether acute administration of an Aβ42 lowering agent would reduce Aβ42 levels in vivo, non-transgenic rodents, e.g. mice or rats were used. Animals treated with the Aβ42 lowering agent were examined and compared to those untreated or treated with vehicle and brain levels of soluble Aβ42 and total Aβ were quantitated by standard techniques, for example, using ELISA. Treatment periods varied from hours (h) to days and were adjusted based on the results of the Aβ42 lowering once a time course of onset of effect could be established.
(§2) A typical protocol for measuring Aβ42 lowering in vivo is shown but it is only one of many variations that could be used to optimize the levels of detectable Aβ. For example, Aβ42 lowering compounds were formulated in 20% of Captisol® (a sulfobutyl ether of β-cyclodextrin) in water or 20% hydroxypropyl β cyclodextrin. The Aβ42 lowering agents were administered as a single oral dose or by any acceptable route of administration to overnight fasted animals. After 4 h, the animals were sacrificed and Aβ42 levels were analysed.
(§3) Blood was collected by decapitation and exsanguinations in EDTA-treated collection tubes. Blood was centrifuged at 1900 g for 10 minutes (min) at 4° C. and the plasma recovered and flash frozen for later analysis. The brain was removed from the cranium and hindbrain. The cerebellum was removed and the left and right hemisphere were separated. The left hemisphere was stored at −18° C. for quantitative analysis of test compound levels. The right hemisphere was rinsed with phosphate-buffered saline (PBS) buffer and immediately frozen on dry ice and stored at −80° C. until homogenization for biochemical assays.
(§4) Mouse brains from non-transgenic animals were resuspended in 8 volumes of 0.4% DEA (diethylamine)/50 mM NaCl containing protease inhibitors (Roche-11873580001 or 04693159001) per gram of tissue, e.g. for 0.158 g brain, add 1.264 ml of 0.4% DEA. All samples were homogenized in the FastPrep-24 system (MP Biomedicals) using lysing matrix D (MPBio #6913-100) at 6 m/s for 20 seconds. Homogenates were centrifuged at 221.300×g for 50 min. The resulting high speed supernatants were then transferred to fresh eppendorf tubes. Nine parts of supernatant were neutralized with 1 part 0.5 M Tris-HCl pH 6.8 and used to quantify Aβtotal and Aβ42.
(§5) To quantify the amount of Aβtotal and Aβ42 in the soluble fraction of the brain homogenates, Enzyme-Linked-Immunosorbent-Assays were used. Briefly, the standards (a dilution of synthetic Aβ1-40 and Aβ1-42, Bachem) were prepared in 1.5 ml Eppendorf tube in Ultraculture, with final concentrations ranging from 10000 to 0.3 pg/ml. The samples and standards were co-incubated with HRPO-labelled N-terminal antibody for Aβ42 detection and with the biotinylated mid-domain antibody 4G8 for Aβtotal detection. 50 μl of conjugate/sample or conjugate/standards mixtures were then added to the antibody-coated plate (the capture antibodies selectively recognize the C-terminal end of Aβ42, antibody JRF/cAβ42/26, for Aβ42 detection and the N-terminus of Aβ, antibody JRF/rAβ/2, for Aβtotal detection). The plate was allowed to incubate overnight at 4° C. in order to allow formation of the antibody-amyloid complex. Following this incubation and subsequent wash steps the ELISA for Aβ42 quantification was finished by addition of Quanta Blu fluorogenic peroxidase substrate according to the manufacturer's instructions (Pierce Corp., Rockford, Ill.). A reading was performed after 10 to 15 min (excitation 320/emission 420).
In this model at least 20% Aβ42 lowering compared to untreated animals would be advantageous.
(§6) The results are shown in Table 4b (dose 30 mg/kg oral dosing): […]

Aβtotal [3] = test: In vivo efficacy, Method 2: brain soluble Aβtotal lowering 4 h after a single oral dose, ELISA (Table 4b); set-up: species or system mouse; settings: dose 30 mg/kg oral dosing
Excerpt: as §1, §2, §3, §4, §5
For Aβtotal detection, a Streptavidine-Peroxidase-Conjugate was added, followed 60 min later by an additional wash step and addition of Quanta Blu fluorogenic peroxidase substrate according to the manufacturer's instructions (Pierce Corp., Rockford, Ill.). A reading was performed after 10 to 15 min (excitation 320 nm/emission 420 nm).
as §6

Aβ42 [4] = test: γ-secretase-modulating activity, Method 2: Aβ42 Alphalisa in supernatant of SKNBE2 cells carrying APP 695-wild type (Table 3b); assay type: cell-based; settings: overnight
How it was run: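 SKNBE2 cells expressing wild-type APP695 were incubated overnight at 37° C. with test compound. Secreted Aβ42 was then measured by AlphaLISA, using a C-terminal Aβ42 antibody paired with an N-terminal Aβ antibody. IC50 came from a 4-parameter fit of percent of compound-free control.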

Structure (SMILES) | IC50 (Aβtotal [1]) | Aβ42 (% Ctrl) _Mean (Aβ42 [2]) | Aβtotal (% Ctrl) _Mean (Aβtotal [3]) | IC50 (Aβ42 [4])
COc1ccc(C)c(Nc2nc(-c3ccc(-n4cnc(C)c4)c(OC)c3)nn2C)c1 [Compound 199] | > 10000 nM | 39 % Ctrl | 5 % Ctrl | 16 nM
COc1cc(-c2nc(Nc3cc(C(F)(F)F)cc(OC)c3F)n(C)n2)ccc1-n1cnc(C)c1 [Compound 203] | > 10000 nM | 54 % Ctrl | 6 % Ctrl | 10 nM
COCc1ccccc1Nc1nc(-c2ccc(-n3cnc(C)c3)c(OC)c2)nn1C.Cl [Compound 204] | > 10000 nM | 41 % Ctrl | 2 % Ctrl | 110 nM
COc1cc(-c2nc(Nc3c(F)ccc(C(F)(F)F)c3F)n(C)n2)ccc1-n1cnc(C)c1 [Compound 211] | > 10000 nM | 32 % Ctrl | −1 % Ctrl | 25 nM
COc1cc(Nc2nc(-c3ccc(-n4cnc(C)c4)c(OC)c3)nn2C)cc(C(F)(F)F)c1 [Compound 213] | 8910 nM | 9 % Ctrl | 7 % Ctrl | 5 nM
COc1cc(-c2nc(Nc3c(F)cccc3OC)n(C)n2)ccc1-n1cnc(C)c1 [Compound 214] | > 10000 nM | −15 % Ctrl | 0 % Ctrl | 170 nM
COc1ccc(C(F)(F)F)cc1Nc1nc(-c2ccc(-n3cnc(C)c3)c(OC)c2)nn1C [Compound 217] | 6460 nM | 35 % Ctrl | −4 % Ctrl | 26 nM
COc1cc(-c2nc(Nc3cc(C(C)(C)C)nn3C)n(C)n2)ccc1-n1cnc(C)c1 [Compound 244] | > 10000 nM | 7 % Ctrl | 5 % Ctrl | 83 nM
COc1cc(-c2nc3n(n2)CCC[C@H]3c2ccccc2Cl)ccc1-n1cnc(C)c1 [Compound 255] | 9330 nM | 21 % Ctrl | 11 % Ctrl | 32 nM
COc1cc(-c2nc3n(n2)CCC[C@@H]3c2ccccc2C(F)(F)F)ccc1-n1cnc(C)c1 [Compound 260] | > 15000 nM | −1 % Ctrl | −9 % Ctrl | 457 nM
COc1cc(-c2nc3n(n2)CCC[C@H]3c2ccccc2C(F)(F)F)ccc1-n1cnc(C)c1 [Compound 261] | > 15000 nM | 46 % Ctrl | 6 % Ctrl | 24 nM
COc1nc(-c2nc3n(n2)CCC[C@H]3c2ccccc2C(F)(F)F)ccc1-n1cnc(C)c1 [Compound 263] | > 10000 nM | 62 % Ctrl | 12 % Ctrl | 29 nM
COc1cc(-c2nc3n(n2)CCCC3c2cc(C(F)(F)F)ccc2C)ccc1-n1cnc(C)c1 (stereo not drawn) [Compound 264] | > 10000 nM | 49 % Ctrl | 8 % Ctrl | 15 nM
COc1cc(-c2nc3n(n2)CCCC3c2cc(OC(F)(F)F)ccc2F)ccc1-n1cnc(C)c1 (stereo not drawn) [Compound 265] | > 10000 nM | 55 % Ctrl | 22 % Ctrl | 19 nM
COc1nc(-c2nc(Nc3cccc(F)c3Cl)n(C)n2)ccc1-n1cnc(C)c1 [Compound 302] | > 10000 nM | 31 % Ctrl | −3 % Ctrl | 71 nM

Reference: patent publication US8946266B2, “Substituted triazole and imidazole derivatives as gamma secretase modulators” (Janssen Pharmaceuticals, Inc., priority 2009, dated 2015)
